Measurements reported in patent US20200148635A1 (priority 2017, published 2020).

Assays:
Fusarium culmorum = test: In vitro test Fusarium culmorum (foot rot of cereals), radial growth on Potato Dextrose Agar; assay type: cell-based; details: 300 ppm, agar plate, 25° C., seven days
Method: Fusarium culmorum (Foot Rot of Cereals):
(§1) Compounds were dissolved in 0.3% DMSO and then added to Potato Dextrose Agar medium just prior to dispensing it into petri dishes. 5 mL medium with compound in the desired concentration was dispensed into 60 mm sterile Petri-plates. After solidification each plate was seeded with 5 mm size mycelial disc taken form periphery of actively growing virulent culture plate. Plates were incubated in growth chambers at 25° C. temperature and 60% relative humidity for seven days and radial growth was measured.

Alternaria solani = test: In vitro test Alternaria solani (early blight of tomato/potato), radial growth on Potato Dextrose Agar; assay type: cell-based; details: 168 h, agar plate, 25° C., seven days, read-out: control compared to the untreated check
Method: as §1, with “Alternaria solani (early blight of tomato/potato): Compounds” for “Compounds”, “Petri” for “petri”

Bortytis cinera = test: Greenhouse Bortytis cinera test in tomato, preventive; assay type: in vivo; details: Solanum lycopersicum, preventive spray on tomato plants, inoculated one day after treatment with Bortytis cinera, read-out: control compared to the untreated check
Method: Bortytis cinera Test in Tomato
Compounds were dissolved in 2% DMSO/Acetone and then mixed with water to calibrated spray volume of 50 mL. This 50 mL spray solution was poured into the spray bottles for further applications.
(§2) To test the preventive activity of compounds, healthy young tomato plants raised in the greenhouse were sprayed with active compound preparation at the stated application rates inside the spray cabinets using hallowcone nozzles. One day after treatment, the plants were inoculated with spore suspension (2% Malt) containing 1.2×10^6 Bortytis cinera inoculum. The inoculated plants were then kept in greenhouse chamber at 18-20° C. temperature and 90-100% relative humidity for disease expression.
(§3) A visual assessment of compound's performance was carried by rating the disease severity (0-100% scale) on treated plants on 3, 7, 10 and 15 days after application. Efficacy (% control) of the compounds was calculated by comparing the disease rating in the treatment with untreated control. The sprayed plants were also assessed for compound's phytotoxic effects by recording symptoms like necrosis, chlorosis and stunting.

Rhizoctonia solani = test: In vitro test Rhizoctonia solani (rice sheath blight/potato black scurf), radial growth on Potato Dextrose Agar; assay type: cell-based; details: 168 h, agar plate, 25° C., seven days, read-out: control compared to the untreated check
Method: Rhizoctonia solani (Rice Sheath Blight/Potato Black Scurf):
as §1, with “Petri” for “petri”

Phakopsora pachyrhizi = test: Greenhouse Phakopsora pachyrhizi test in soybean, preventive; assay type: in vivo; details: preventive spray on soybean plants, inoculated one day after treatment with Phakopsora pachyrhizi, read-out: control compared to the untreated check
Method: Phakopsora pachyrhizi Test in Soybean
Compounds were dissolved in 2% DMSO/Acetone and then mixed with water to the calibrated spray volume of 50 mL and poured into the spray bottles for further applications.
as §2, with “soybean” for “tomato”, “suspension” for “suspension (2% Malt)”, “2.1×10^6 Phakopsora pachyrhizi” for “1.2×10^6 Bortytis cinera”, “25°” for “18-20°”, “90%” for “90-100%”
as §3, with “carried out” for “carried”, “with the one of the” for “with”, “plant compatibility” for “phytotoxic effects”

Pyricularia oryzae = test: microbe, parasite or virus in culture; assay type: cell-based; details: 168 h, read-out: control compared to the untreated check
Septoria lycopersici = test: In vitro test Septoria lycopersici (leaf spot of tomato), radial growth on Potato Dextrose Agar; assay type: cell-based; details: 168 h, agar plate, 25° C., seven days, read-out: control compared to the untreated check
Method: Septoria lycopersici (Leaf Spot of Tomato):
as §1, with “Petri” for “petri”, “70%” for “60%”

Question: Which “control compared to the untreated check” value (Fusarium culmorum) does the source give for `CCN(C)C=Nc1cc(C)c(N=S(C)(=O)c2ccccc2)cc1C` (centres unmarked) [Compound 4] here?
Answer: Its value is 70%.

Question: `CCN(C)C=Nc1cc(C)c(Oc2cccc(S(=O)(=NC(=O)C(F)(F)F)C(C)C)c2)cc1Cl` (centres unmarked) [Compound 10] was tested. Which “control compared to the untreated check” value (Fusarium culmorum) did it give?
Answer: The value was 70%.

Question: With `CCN(C)C=Nc1cc(C)c(Oc2cccc(S(C)(=O)=NCc3ccccc3)c2)cc1Cl` (centres unmarked) [Compound 21] as the molecule, how does the inhibition of growth at 300 ppm (Alternaria solani) read?
Answer: Its inhibition of growth at 300 ppm is over 70%.

Question: And the pest or weed control at 500 ppm (Bortytis cinera)?
Answer: The pest or weed control at 500 ppm was over 70%.

Question: And the inhibition of growth at 300 ppm (Rhizoctonia solani)?
Answer: Its inhibition of growth at 300 ppm is over 70%.

Question: And the pest or weed control at 500 ppm (Phakopsora pachyrhizi)?
Answer: Its pest or weed control at 500 ppm is over 70%.

Question: How did the “control compared to the untreated check” value (Fusarium culmorum) turn out when `CCN=S(=O)(CCC(C)C)c1cccc(Oc2cc(Cl)c(N=CN(C)CC)cc2C)c1` (centres unmarked) [Compound 25] was run?
Answer: Its value is 70%.

Question: And the inhibition of growth at 300 ppm (Alternaria solani)?
Answer: Its inhibition of growth at 300 ppm is over 70%.

Question: What about the inhibition of growth at 300 ppm (Pyricularia oryzae) of the same molecule?
Answer: Its inhibition of growth at 300 ppm is over 70%.

Question: `CCN(C)C=Nc1cc(C)c(S(=O)(CC)=NC(=O)c2cccc(OC)c2)cc1Cl` (centres unmarked) [Compound 50] was tested. Which inhibition of growth at 300 ppm (Alternaria solani) did it give?
Answer: Its inhibition of growth at 300 ppm is over 70%.

Question: What about the pest or weed control at 500 ppm (Bortytis cinera) of the same molecule?
Answer: The pest or weed control at 500 ppm was over 70%.

Question: And the inhibition of growth at 300 ppm (Rhizoctonia solani)?
Answer: The inhibition of growth at 300 ppm was over 70%.

Question: What about the pest or weed control at 500 ppm (Phakopsora pachyrhizi) of the same molecule?
Answer: Its pest or weed control at 500 ppm is over 70%.

Question: For `CCN(C)C=Nc1cc(C)c(N=S(C)(=O)c2cccc(OC)c2)cc1C` (centres unmarked) [Compound 74], which pest or weed control at 500 ppm (Bortytis cinera) is on record?
Answer: Its pest or weed control at 500 ppm is over 70%.

Question: And the inhibition of growth at 300 ppm (Pyricularia oryzae)?
Answer: Its inhibition of growth at 300 ppm is over 70%.

Question: What about the pest or weed control at 500 ppm (Phakopsora pachyrhizi) of the same molecule?
Answer: The pest or weed control at 500 ppm was over 70%.

Question: Which pest or weed control at 500 ppm (Bortytis cinera) does the source give for `CCN(C)C=Nc1cc(C)c(N=S(=O)(CCC(C)C)c2cccc(OC)c2)cc1C` (centres unmarked) [Compound 76] here?
Answer: Its pest or weed control at 500 ppm is over 70%.

Question: What about the inhibition of growth at 300 ppm (Pyricularia oryzae) of the same molecule?
Answer: The inhibition of growth at 300 ppm was over 70%.

Question: What about the pest or weed control at 500 ppm (Phakopsora pachyrhizi) of the same molecule?
Answer: Its pest or weed control at 500 ppm is over 70%.

Question: `CCN(C)C=Nc1cc(Br)c(N=S(=O)(CCC(C)C)c2cccc(OC)c2)nc1C` (centres unmarked) [Compound 77] was tested. Which pest or weed control at 500 ppm (Bortytis cinera) did it give?
Answer: Its pest or weed control at 500 ppm is over 70%.

Question: What about the pest or weed control at 500 ppm (Phakopsora pachyrhizi) of the same molecule?
Answer: Its pest or weed control at 500 ppm is over 70%.

Question: Which results are given for `CCN(C)C=Nc1cc(C)c(S(=O)(CC(C)C)=Nc2cc(C(F)(F)F)cc(C(F)(F)F)c2)cc1Cl` (centres unmarked) [Compound 85]?
Answer: pest or weed control at 500 ppm (Bortytis cinera): > 70%; pest or weed control at 500 ppm (Phakopsora pachyrhizi): > 70%

Question: Which pest or weed control at 500 ppm (Bortytis cinera) does the source give for `CCN(C)C=Nc1cc(C)c(S(=O)(CC(C)C)=Nc2ccccc2)cc1Cl` (centres unmarked) [Compound 86] here?
Answer: The pest or weed control at 500 ppm was over 70%.

Question: What about the inhibition of growth at 300 ppm (Pyricularia oryzae) of the same molecule?
Answer: Its inhibition of growth at 300 ppm is over 70%.

Question: What about the pest or weed control at 500 ppm (Phakopsora pachyrhizi) of the same molecule?
Answer: The pest or weed control at 500 ppm was over 70%.

Question: For `CCN(C)C=Nc1cc(Br)c(N=S(C)(=O)c2cccc(OC)c2)nc1C` (centres unmarked) [Compound 87], which pest or weed control at 500 ppm (Bortytis cinera) is on record?
Answer: Its pest or weed control at 500 ppm is over 70%.

Question: Which results are given for `CCN(C)C=Nc1cc(C)c(S(C)(=O)=NCc2cccc(Cl)c2)cc1Cl` (centres unmarked) [Compound 90]?
Answer: inhibition of growth at 300 ppm (Alternaria solani): > 70%; inhibition of growth at 300 ppm (Septoria lycopersici): > 70%; inhibition of growth at 300 ppm (Rhizoctonia solani): > 70%; pest or weed control at 500 ppm (Phakopsora pachyrhizi): > 70%

Question: What does the source list for `CCN(C)C=Nc1cc(C)c(S(C)(=O)=NCc2cccc(OC(F)(F)F)c2)cc1Cl` (centres unmarked) [Compound 92]?
Answer: inhibition of growth at 300 ppm (Alternaria solani): > 70%; inhibition of growth at 300 ppm (Septoria lycopersici): > 70%; inhibition of growth at 300 ppm (Rhizoctonia solani): > 70%

Question: Which results are given for `CCN(C)C=Nc1cc(C)c(Oc2cccc(S(C)(=O)=NCC(F)(F)F)c2)cc1C` (centres unmarked) [Compound 96]?
Answer: inhibition of growth at 300 ppm (Alternaria solani): > 70%; pest or weed control at 500 ppm (Bortytis cinera): > 70%; inhibition of growth at 300 ppm (Septoria lycopersici): > 70%; inhibition of growth at 300 ppm (Rhizoctonia solani): > 70%

Question: For `CCN(C)C=Nc1cc(C)c(Oc2cccc(S(C)(=O)=Nc3ccccc3)c2)cc1C` (centres unmarked) [Compound 98], which pest or weed control at 500 ppm (Bortytis cinera) is on record?
Answer: Its pest or weed control at 500 ppm is over 70%.

Question: Which results are given for `CCN(C)C=Nc1cc(C)c(S(=O)(CC(C)C)=Nc2ccc(N3CCOCC3)cc2)cc1Cl` (centres unmarked) [Compound 113]?
Answer: inhibition of growth at 300 ppm (Alternaria solani): > 70%; inhibition of growth at 300 ppm (Septoria lycopersici): > 70%; inhibition of growth at 300 ppm (Rhizoctonia solani): > 70%

Question: How did the inhibition of growth at 300 ppm (Alternaria solani) turn out when `CCN(C)C=Nc1cc(C)c(S(=O)(CC(C)C)=Nc2ccsc2)cc1Cl` (centres unmarked) [Compound 114] was run?
Answer: The inhibition of growth at 300 ppm was over 70%.

Question: And the inhibition of growth at 300 ppm (Septoria lycopersici)?
Answer: Its inhibition of growth at 300 ppm is over 70%.

Question: What about the inhibition of growth at 300 ppm (Rhizoctonia solani) of the same molecule?
Answer: Its inhibition of growth at 300 ppm is over 70%.

Question: What about the pest or weed control at 500 ppm (Phakopsora pachyrhizi) of the same molecule?
Answer: Its pest or weed control at 500 ppm is over 70%.

Question: For `CCN(C)C=Nc1cc(C)c(S(=O)(CC(C)C)=Nc2ccc(OC)c(OC)c2)cc1Cl` (centres unmarked) [Compound 124], which inhibition of growth at 300 ppm (Alternaria solani) is on record?
Answer: Its inhibition of growth at 300 ppm is over 70%.

Question: And the inhibition of growth at 300 ppm (Septoria lycopersici)?
Answer: Its inhibition of growth at 300 ppm is over 70%.

Question: What about the inhibition of growth at 300 ppm (Rhizoctonia solani) of the same molecule?
Answer: The inhibition of growth at 300 ppm was over 70%.

Question: How did the inhibition of growth at 300 ppm (Alternaria solani) turn out when `CCN(C)C=Nc1cc(C)c(Oc2ccc(S(C)(=O)=NCC3CC3)cc2)cc1Cl` (centres unmarked) [Compound 127] was run?
Answer: The inhibition of growth at 300 ppm was over 70%.

Question: And the pest or weed control at 500 ppm (Bortytis cinera)?
Answer: Its pest or weed control at 500 ppm is over 70%.

Question: What about the inhibition of growth at 300 ppm (Pyricularia oryzae) of the same molecule?
Answer: The inhibition of growth at 300 ppm was over 70%.

Question: Which results are given for `CCN(C)C=Nc1cc(C)c(Cc2ccc(S(C)(=N)=O)cc2)cc1C` (centres unmarked) [Compound 128]?
Answer: inhibition of growth at 300 ppm (Alternaria solani): > 70%; pest or weed control at 500 ppm (Bortytis cinera): > 70%; inhibition of growth at 300 ppm (Pyricularia oryzae): > 70%

Question: With `CCN(C)C=Nc1cc(C)c(Oc2ccc(S(C)(=O)=NC(F)(F)F)cc2)cc1Cl` (centres unmarked) [Compound 134] as the molecule, how does the inhibition of growth at 300 ppm (Alternaria solani) read?
Answer: Its inhibition of growth at 300 ppm is over 70%.

Question: And the inhibition of growth at 300 ppm (Septoria lycopersici)?
Answer: The inhibition of growth at 300 ppm was over 70%.

Question: What about the inhibition of growth at 300 ppm (Rhizoctonia solani) of the same molecule?
Answer: The inhibition of growth at 300 ppm was over 70%.

Question: What does the source list for `CCN=S(C)(=O)c1cccc(Nc2cc(C)c(N=CN(C)CC)cc2C)c1` (centres unmarked) [Compound 140]?
Answer: control compared to the untreated check (Fusarium culmorum): 70%; inhibition of growth at 300 ppm (Alternaria solani): > 70%; inhibition of growth at 300 ppm (Septoria lycopersici): > 70%; inhibition of growth at 300 ppm (Rhizoctonia solani): > 70%

Question: With `CCN(C)C=Nc1cc(C)c(Oc2cccc(S(=O)(=NCC3CC3)C(F)(F)F)c2)cc1Cl` (centres unmarked) [Compound 144] as the molecule, how does the “control compared to the untreated check” value (Fusarium culmorum) read?
Answer: Its value is 70%.

Question: With `CCN(C)C=Nc1cc(C)c(Oc2ccccc2S(=N)(=O)C(F)(F)F)cc1Cl` (centres unmarked) [Compound 147] as the molecule, how does the “control compared to the untreated check” value (Fusarium culmorum) read?
Answer: Its value is 70%.

Question: How did the “control compared to the untreated check” value (Fusarium culmorum) turn out when `CCN=S(=O)(c1ccccc1Oc1cc(Cl)c(N=CN(C)CC)cc1C)C(F)(F)F` (centres unmarked) [Compound 150] was run?
Answer: Its value is 70%.

Question: What about the inhibition of growth at 300 ppm (Alternaria solani) of the same molecule?
Answer: The inhibition of growth at 300 ppm was over 70%.

Question: What about the inhibition of growth at 300 ppm (Rhizoctonia solani) of the same molecule?
Answer: Its inhibition of growth at 300 ppm is over 70%.

Question: And the pest or weed control at 500 ppm (Phakopsora pachyrhizi)?
Answer: Its pest or weed control at 500 ppm is over 70%.
